Toxic doses and inconclusive results are not listed.
Test system: L1210 leukemia ip in BDF1 mice, survival T/C
Assay: NCI In Vivo Anticancer Drug Screen. Data for tumor model L1210 Leukemia (intraperitoneal) in B6D2F1 (BDF1) mice
Details: higher = longer survival
Procedure, shortened: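 Tumor was transplanted into mice, which were then dosed with test compound or vehicle alone. Survival was recorded for each group, and the treated figure was expressed relative to the control figure.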

[1] = endpoint: mean survival time, dose: 100.0 mg/kg/injection, schedule: Q01DX009 (ip), vehicle: saline
[2] = endpoint: mean survival time, dose: 100.0 mg/kg/injection, schedule: Q04DX003 (ip), vehicle: saline with Tween-80
[3] = endpoint: mean survival time, dose: 200.0 mg/kg/injection, schedule: Q01DX009 (ip), vehicle: saline
[4] = endpoint: mean survival time, dose: 200.0 mg/kg/injection, schedule: Q04DX003 (ip), vehicle: saline with Tween-80
[5] = endpoint: mean survival time, dose: 100.0 mg/kg/injection, schedule: Q01DX001 (ip), vehicle: saline
[6] = endpoint: mean survival time, dose: 200.0 mg/kg/injection, schedule: Q01DX001 (ip), vehicle: saline
[7] = endpoint: mean survival time, dose: 400.0 mg/kg/injection, schedule: Q01DX001 (ip), vehicle: saline
[8] = endpoint: mean survival time, dose: 75.0 mg/kg/injection, schedule: Q01DX009 (ip), vehicle: saline
[9] = endpoint: mean survival time, dose: 100.0 mg/kg/injection, schedule: Q04DX003 (ip), vehicle: saline
[10] = endpoint: mean survival time, dose: 150.0 mg/kg/injection, schedule: Q01DX009 (ip), vehicle: saline
[11] = endpoint: mean survival time, dose: 200.0 mg/kg/injection, schedule: Q04DX003 (ip), vehicle: saline
[12] = endpoint: mean survival time, dose: 300.0 mg/kg/injection, schedule: Q01DX009 (ip), vehicle: saline
[13] = endpoint: mean survival time, dose: 400.0 mg/kg/injection, schedule: Q04DX003 (ip), vehicle: saline

For `O=NN(CCCl)C(=O)NC1C2CC3CC(C2)CC1C3` (stereo unspecified), the T/C (endpoint: mean survival time, dose: 12.0 mg/kg/injection, schedule: Q01DX001 (ip), vehicle: other) was 110 % of control, the T/C (endpoint: mean survival time, dose: 18.0 mg/kg/injection, schedule: Q01DX001 (ip), vehicle: other) was 114 % of control and the T/C (endpoint: mean survival time, dose: 26.0 mg/kg/injection, schedule: Q01DX001 (ip), vehicle: other) was 123 % of control. For the same compound, the T/C (endpoint: mean survival time, dose: 40.0 mg/kg/injection, schedule: Q01DX001 (ip), vehicle: other) was 163 % of control, the T/C (endpoint: mean survival time, dose: 60.0 mg/kg/injection, schedule: Q01DX001 (ip), vehicle: other) was 244 % of control and the T/C (endpoint: mean survival time, dose: 93.0 mg/kg/injection, schedule: Q01DX001 (ip), vehicle: other) was 323 % of control. The T/C (endpoint: mean survival time, dose: 187.0 mg/kg/injection, schedule: Q01DX001 (ip), vehicle: other) was 340 % of control.
`N#Cc1cccnc1` was tested, and the T/C (endpoint: mean survival time, dose: 50.0 mg/kg/injection, schedule: Q01DX009 (ip), vehicle: saline) was 97 % of control, the T/C [1] was 110 % of control and the T/C [2] was 90 % of control. For the same compound, the T/C [3] was 108 % of control, the T/C [4] was 102 % of control and the T/C (endpoint: mean survival time, dose: 400.0 mg/kg/injection, schedule: Q04DX003 (ip), vehicle: saline with Tween-80) was 104 % of control.
With `O=Nc1c(S(=O)(=O)O)cc2cc(S(=O)(=O)O)cc(O)c2c1O.[Cu+2]` the T/C (endpoint: mean survival time, dose: 0.16 mg/kg/injection, schedule: Q01DX009 (ip), vehicle: saline) was 95 % of control, the T/C (endpoint: mean survival time, dose: 0.31 mg/kg/injection, schedule: Q01DX009 (ip), vehicle: saline) was 103 % of control and the T/C (endpoint: mean survival time, dose: 0.63 mg/kg/injection, schedule: Q01DX009 (ip), vehicle: saline) was 92 % of control. For the same compound, the T/C (endpoint: mean survival time, dose: 1.25 mg/kg/injection, schedule: Q04DX003 (ip), vehicle: saline) was 102 % of control, the T/C (endpoint: mean survival time, dose: 2.5 mg/kg/injection, schedule: Q04DX003 (ip), vehicle: saline) was 102 % of control and the T/C (endpoint: mean survival time, dose: 5.0 mg/kg/injection, schedule: Q04DX003 (ip), vehicle: saline) was 94 % of control.
With `CN(C)N=Nc1ccc(C(N)=O)cc1` the T/C (endpoint: mean survival time, dose: 30.0 mg/kg/injection, schedule: Q01DX Z (ip), vehicle: other) was 108 % of control, the T/C (endpoint: mean survival time, dose: 40.0 mg/kg/injection, schedule: Q01DX Z (ip), vehicle: other) was 111 % of control and the T/C (endpoint: mean survival time, dose: 60.0 mg/kg/injection, schedule: Q01DX Z (ip), vehicle: other) was 121 % of control. The T/C (endpoint: median survival time, dose: 65.0 mg/kg/injection, schedule: Q01DX001 (ip), vehicle: steriod suspending solution) was 100 % of control, the T/C (endpoint: median survival time, dose: 65.0 mg/kg/injection, schedule: Q01DX009 (ip), vehicle: steriod suspending solution) was 105 % of control and the T/C (endpoint: median survival time, dose: 108.0 mg/kg/injection, schedule: Q01DX001 (ip), vehicle: steriod suspending solution) was 100 % of control. The T/C (endpoint: median survival time, dose: 180.0 mg/kg/injection, schedule: Q04DX003 (ip), vehicle: steriod suspending solution) was 105 % of control and the T/C (endpoint: median survival time, dose: 300.0 mg/kg/injection, schedule: Q01DX001 (ip), vehicle: steriod suspending solution) was 100 % of control.
In the case of `COC1OC2COC(c3ccccc3)OC2C(OC)C1O` (stereo unspecified), the T/C (endpoint: mean survival time, dose: 12.5 mg/kg/injection, schedule: Q04DX002 (ip), vehicle: Klucel (hydroxypropylcellulose) (HPC)) is reported as 103 % of control, the T/C (endpoint: mean survival time, dose: 25.0 mg/kg/injection, schedule: Q04DX002 (ip), vehicle: Klucel (hydroxypropylcellulose) (HPC)) is reported as 100 % of control and the T/C (endpoint: mean survival time, dose: 50.0 mg/kg/injection, schedule: Q04DX002 (ip), vehicle: Klucel (hydroxypropylcellulose) (HPC)) is reported as 100 % of control.
In the case of `O=C(O)c1cccc(-c2ccccc2)c1O`, the T/C [5] is reported as 97 % of control and the T/C [6] is reported as 102 % of control.
For `CC12CCC(O)CC1=CCC1C2CCC2(C)C1CCC2(O)C#CCN(CCCl)CCCl` (stereo unspecified), the T/C (endpoint: mean survival time, dose: 50.0 mg/kg/injection, schedule: Q04DX003 (sc), vehicle: steriod suspending solution) was 93 % of control, the T/C (endpoint: mean survival time, dose: 100.0 mg/kg/injection, schedule: Q04DX003 (sc), vehicle: steriod suspending solution) was 112 % of control and the T/C (endpoint: mean survival time, dose: 200.0 mg/kg/injection, schedule: Q04DX003 (sc), vehicle: steriod suspending solution) was 100 % of control. For the same compound, the T/C (endpoint: mean survival time, dose: 400.0 mg/kg/injection, schedule: Q04DX003 (sc), vehicle: steriod suspending solution) was 99 % of control.
`CS(C)=O` was tested, and the T/C [5] was 112 % of control, the T/C [6] was 102 % of control and the T/C [7] was 106 % of control. The T/C (endpoint: mean survival time, dose: 1500.0 mg/kg/injection, schedule: Q01DX Z (ip), vehicle: other) was 98 % of control, the T/C (endpoint: mean survival time, dose: 1.6 grams/kg/injection, schedule: Q03HX008 (ip), vehicle: saline) was 97 % of control and the T/C (endpoint: mean survival time, dose: 1.6 grams/kg/injection, schedule: Q03HX016 (ip), vehicle: saline) was 101 % of control. For the same compound, the T/C (endpoint: mean survival time, dose: 1.6 grams/kg/injection, schedule: Q03HX024 (ip), vehicle: saline) was 105 % of control, the T/C (endpoint: mean survival time, dose: 3000.0 mg/kg/injection, schedule: Q01DX Z (ip), vehicle: other) was 98 % of control and the T/C (endpoint: mean survival time, dose: 3.1 grams/kg/injection, schedule: Q01DX001 (ip), vehicle: saline) was 104 % of control. The T/C (endpoint: mean survival time, dose: 3.1 grams/kg/injection, schedule: Q01DX009 (ip), vehicle: saline) was 100 % of control, the T/C (endpoint: mean survival time, dose: 3.1 grams/kg/injection, schedule: Q03HX008 (ip), vehicle: saline) was 91 % of control and the T/C (endpoint: mean survival time, dose: 3.1 grams/kg/injection, schedule: Q03HX024 (ip), vehicle: saline) was 110 % of control. For the same compound, the T/C (endpoint: mean survival time, dose: 3.1 grams/kg/injection, schedule: Q04DX003 (ip), vehicle: saline) was 95 % of control, the T/C (endpoint: mean survival time, dose: 3.1 grams/kg/injection, schedule: Q08DX002 (ip), vehicle: saline) was 98 % of control and the T/C (endpoint: mean survival time, dose: 6.3 grams/kg/injection, schedule: Q01DX001 (ip), vehicle: saline) was 100 % of control. For the same compound, the T/C (endpoint: mean survival time, dose: 6.3 grams/kg/injection, schedule: Q01DX009 (ip), vehicle: saline) was 97 % of control, the T/C (endpoint: mean survival time, dose: 6.3 grams/kg/injection, schedule: Q04DX003 (ip), vehicle: saline) was 95 % of control and the T/C (endpoint: mean survival time, dose: 6.3 grams/kg/injection, schedule: Q08DX002 (ip), vehicle: saline) was 96 % of control. The T/C (endpoint: median survival time, dose: 0.5 mg/kg/injection, schedule: Q#C X009 (adlb), vehicle: water) was 106 % of control, the T/C (endpoint: median survival time, dose: 1.0 mg/kg/injection, schedule: Q01DX019 (adlb), vehicle: water) was 92 % of control and the T/C (endpoint: median survival time, dose: 1.0 mg/kg/injection, schedule: Q#C X009 (adlb), vehicle: water) was 102 % of control. The T/C (endpoint: median survival time, dose: 2.0 mg/kg/injection, schedule: Q01DX019 (adlb), vehicle: water) was 97 % of control, the T/C (endpoint: median survival time, dose: 2.0 mg/kg/injection, schedule: Q#C X009 (adlb), vehicle: water) was 107 % of control and the T/C (endpoint: median survival time, dose: 4.0 mg/kg/injection, schedule: Q01DX019 (adlb), vehicle: water) was 99 % of control. The T/C (endpoint: median survival time, dose: 4.0 mg/kg/injection, schedule: Q#C X009 (adlb), vehicle: water) was 101 % of control and the T/C (endpoint: median survival time, dose: 8.0 mg/kg/injection, schedule: Q#C X009 (adlb), vehicle: water) was 103 % of control.
`CC(=O)c1ccc2ccc3ccccc3c2c1` was tested, and the T/C [8] was 98 % of control, the T/C [9] was 98 % of control and the T/C [10] was 98 % of control. For the same compound, the T/C [11] was 101 % of control, the T/C [12] was 95 % of control and the T/C [13] was 101 % of control.
`C[n+]1c(/C=C/c2c[nH]c3ccccc23)ccc2ccccc21` was tested, and the T/C (endpoint: mean survival time, dose: 5.0 mg/kg/injection, schedule: Q01DX001 (ip), vehicle: acetone) was 101 % of control, the T/C (endpoint: mean survival time, dose: 10.0 mg/kg/injection, schedule: Q01DX001 (ip), vehicle: acetone) was 102 % of control and the T/C (endpoint: mean survival time, dose: 20.0 mg/kg/injection, schedule: Q01DX001 (ip), vehicle: acetone) was 96 % of control. The T/C (endpoint: mean survival time, dose: 40.0 mg/kg/injection, schedule: Q01DX001 (ip), vehicle: acetone) was 107 % of control and the T/C (endpoint: mean survival time, dose: 80.0 mg/kg/injection, schedule: Q01DX001 (ip), vehicle: acetone) was 100 % of control.
For `CCOC(=O)C(=O)C1CCCCC1=O` (stereo unspecified), the T/C [5] was 108 % of control and the T/C [6] was 108 % of control.
In the case of `C(=C\c1ccccn1)/c1ccc2c(c1)OCO2`, the T/C [8] is reported as 93 % of control, the T/C [5] is reported as 101 % of control and the T/C [10] is reported as 93 % of control. The T/C [6] was 96 % of control, the T/C [12] was 88 % of control and the T/C [7] was 95 % of control.
For `N#CCc1c(Cl)sc(Cl)c1CC#N`, the T/C [2] was 88 % of control and the T/C [4] was 88 % of control.
With `C=CCC(CC)(C(=O)O)C(=O)O` the T/C [1] was 96 % of control, the T/C [9] was 102 % of control and the T/C [3] was 93 % of control. For the same compound, the T/C [11] was 95 % of control and the T/C [13] was 86 % of control.
In the case of `COc1ccc(NC(=O)Nc2ccccc2Cl)c(OC)c1`, the T/C (endpoint: mean survival time, dose: 100.0 mg/kg/injection, schedule: Q04DX002 (ip), vehicle: saline with Tween-80) is reported as 87 % of control and the T/C (endpoint: mean survival time, dose: 400.0 mg/kg/injection, schedule: Q04DX002 (ip), vehicle: saline with Tween-80) is reported as 87 % of control.
In the case of `O=C(O)c1ccc2ccccc2n1.[Cu+2]`, the T/C [5] is reported as 93 % of control.
